Reference: PubChem BioAssay (NCI)
Several values for one entry are separate records, joined by “and”; a condition that tells them apart may be missing. Equal entries are not always repeated.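 Cultured in 96-well plates, cells were exposed to test compound for 48 hours across five concentrations. Abbreviation: GI50, concentration required for 50% inhibition of growth. TGI is the concentration that stops growth completely.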 Where a SMILES comes first, the peptide text is derived from it. [ ]: non-standard residue; d: D form. The star is where a group is joined. ξ: configuration not given here. X3 = COc1ccc(C(N*)c2ccc(OC)cc2)cc1; NMeF = CN[C@@H](Cc1ccccc1)C(=O)O; NMeD = CN[C@@H](CC(=O)O)C(=O)O; NMeV = CN[C@H](C(=O)O)C(C)C; ξNMeV = CNC(C(=O)O)C(C)C; Boc = CC(C)(C)OC(=O)*; ξNMeA = CNC(C)C(=O)O; ξV = CC(C)C(N)C(=O)O

Tests used:
Assay in all cases: growth of human tumour cells (NCI), 48 h
COLO 205 colon = test system: COLO 205 colon
MCF7 breast = test system: MCF7 breast
K-562 leukemia = test system: K-562 leukemia
UACC-257 melanoma = test system: UACC-257 melanoma
DU-145 prostate = test system: DU-145 prostate
NCI-H226 lung = test system: NCI-H226 lung
CCRF-CEM leukemia = test system: CCRF-CEM leukemia
HCC-2998 colon = test system: HCC-2998 colon
PC-3 prostate = test system: PC-3 prostate
NCI-H460 lung = test system: NCI-H460 lung

SMILES	TGI (COLO 205 colon)	TGI (MCF7 breast)	TGI (K-562 leukemia)	TGI (UACC-257 melanoma)	TGI (DU-145 prostate)	TGI (NCI-H226 lung)	TGI (CCRF-CEM leukemia)	TGI (HCC-2998 colon)	TGI (PC-3 prostate)	TGI (NCI-H460 lung)	GI50 (COLO 205 colon)	GI50 (MCF7 breast)	GI50 (K-562 leukemia)	GI50 (UACC-257 melanoma)	GI50 (DU-145 prostate)	GI50 (NCI-H226 lung)	GI50 (CCRF-CEM leukemia)	GI50 (HCC-2998 colon)	GI50 (PC-3 prostate)	GI50 (NCI-H460 lung)
CC(=O)CC(OC(C)=O)C1=CCC2C(CC1C)OC(=O)C2C (stereo not drawn)	> 100 µM	> 100 µM	> 100 µM	> 100 µM	> 100 µM	> 100 µM	> 100 µM	> 100 µM	> 100 µM	> 100 µM										
C[C@]12CCC3c4ccc(O)cc4CCC3C1CC[C@@]2(O)CNC(=O)/C=C/c1ccc(O)c(O)c1 (stereo partly drawn)	10.4 µM	45.4 µM	12.6 µM	6.54 µM	14.8 µM	33.1 µM	31.2 µM	23.4 µM	22.8 µM	31.6 µM	3.55 µM	12.4 µM	3.38 µM	0.0562 µM	3.29 µM	15.4 µM	4.33 µM	10.8 µM	5.65 µM	4.9 µM
COc1ccc(C(NC(=O)C[C@@H](C(=O)N(C)C(C)C(=O)O)N(C)C(=O)[C@@H]2CCCN2C(=O)[C@H](C(C)C)N(C)C(=O)C(C(C)C)N(C)C(=O)[C@H](Cc2ccccc2)N(C)C(=O)C(NC(=O)OC(C)(C)C)C(C)C)c2ccc(OC)cc2)cc1 (stereo partly drawn) (Boc-[ξV][NMeF][ξNMeV][NMeV]P[NMeD](X3)[ξNMeA]-OH)	32.1 µM and 30.9 µM	37.5 µM	26.9 µM and 43.8 µM	23 µM and 32.2 µM	37.5 µM	19.2 µM and 32.3 µM	17.5 µM and 41.6 µM	14.8 µM and 36 µM	37.5 µM	37.5 µM and 33.3 µM	17.2 µM		18.9 µM	17.3 µM		18 µM	19.8 µM	19.3 µM		17.8 µM
CCN(Cc1ccc(F)cc1)c1cc(Cl)c(CO)c(Cl)c1	31.4 µM	28 µM	51.6 µM	20.4 µM	31.6 µM	17.1 µM	47.7 µM	28.1 µM	24.7 µM	25.9 µM	17.3 µM	13.7 µM	15.9 µM	6.56 µM	16.8 µM	3.69 µM	16.8 µM	13.9 µM	11.3 µM	11.8 µM
COc1ccc(/C=N/NC(=O)c2cccc3cc[nH]c23)cc1O	> 80.7 µM	> 100 µM	> 100 µM	> 100 µM	> 46.5 µM	> 33.7 µM	> 28.5 µM	97.5 µM	> 100 µM	> 68.3 µM	13.9 µM	0.63 µM	2.17 µM	> 42.8 µM	3 µM	6.28 µM	1.93 µM	6.96 µM	2.05 µM	2.03 µM
CN(C)c1cc(NN=C(c2ccc(O)cc2)c2ccc(O)cc2)c([N+](=O)[O-])cc1[N+](=O)[O-]	24.7 µM	16 µM	> 100 µM	27.3 µM	23.6 µM	32.3 µM	17.9 µM	27.8 µM	32.2 µM	15.9 µM	8.52 µM	3.42 µM	3.61 µM	13.4 µM	10.2 µM	13.1 µM	2.58 µM	13.8 µM	4.85 µM	4.36 µM
CC1(COc2ccc3c(c2)ncn3-c2ccc3cccc(N4CCC(N)CC4)c3n2)COC1	2.44 µM and 2.86 µM	6.54 µM and 7.83 µM	8.36 µM and 8.92 µM	5.36 µM and 5.55 µM	13 µM and > 10 µM	9.32 µM and > 10 µM	6.44 µM and 5.86 µM	7.51 µM and 7.85 µM	21.6 µM and > 10 µM	6.11 µM and 7.46 µM	1.09 µM and 1.02 µM	2.17 µM and 2.2 µM	2.1 µM and 1.94 µM	2.7 µM	2.19 µM and 1.5 µM	3.18 µM and 2.54 µM	2.02 µM and 1.39 µM	2.7 µM and 2.25 µM	5.38 µM and 3.54 µM	2.17 µM and 2.48 µM
COc1cc(-c2ccc3cc(OC)c(OC)c(OC)c3c2)cc(OC)c1OC	> 100 µM	> 100 µM	> 100 µM	> 100 µM	> 100 µM	> 100 µM	> 100 µM	> 100 µM	> 100 µM		> 100 µM	> 100 µM	5.07 µM	> 100 µM	> 100 µM	> 100 µM	> 100 µM	> 100 µM	5.81 µM	
O=C(/C=C/c1ccc(O)cc1)c1ccc(O)cc1	> 65.9 µM	> 100 µM	> 82.3 µM	74.7 µM	99.9 µM	27.2 µM	> 85 µM	52.7 µM	> 100 µM	72.5 µM										
CCCCCCCCCCn1cc[n+](C)c1	7.01 µM	13.6 µM	3.67 µM	9.92 µM	30.7 µM	47 µM	4.51 µM	11.2 µM	6.73 µM	19.2 µM	1.7 µM	1.69 µM	0.263 µM	1.81 µM	5.25 µM	2.43 µM	0.43 µM	1.56 µM	1.03 µM	3.52 µM
O=C(CCCSc1nc(-c2ccccc2)cc(-c2ccccc2)n1)NO	5.1 µM	14.3 µM	18.9 µM	6.71 µM	11.4 µM	9.28 µM	10.6 µM	6.95 µM	13.6 µM	11.2 µM	1.86 µM	2.1 µM	0.983 µM	1.77 µM	1.83 µM	1.19 µM	0.368 µM	2.05 µM	1.72 µM	0.488 µM
O=C(Oc1ccc(Cl)cc1)c1ccccc1Nc1ccnc(C(F)(F)F)c1		14.7 µM	87.8 µM	24.4 µM	39.8 µM	16.8 µM	52.8 µM	27.6 µM	63.2 µM	35.4 µM		3.73 µM	3.65 µM	4.51 µM	18.7 µM	2.94 µM	4.94 µM	13.6 µM	17 µM	10.5 µM
Nc1n[nH]c2cccc(C#Cc3cccc(C(=O)Nc4ccc(CN5CCOCC5)c(C(F)(F)F)c4)c3)c12	6.99 µM	10.3 µM	> 100 µM	10.6 µM	13.3 µM	7.81 µM	11.5 µM	13.9 µM	7.79 µM	10.3 µM	1.35 µM	2.41 µM	0.0233 µM	2.41 µM	3.93 µM	1.14 µM	2.26 µM	3 µM	2.16 µM	3.2 µM
